Data taken from patent US6797710B2, “Heterocyclic derivatives and their use as antithrombotic agents” (Akzo Nobel N.V., priority 1997, dated 2004).
Counter-ions that a name gives are not always drawn. Like-named read-outs stand apart in the source and are kept apart here. Each block holds one molecule with its values, some of them ahead of it.

Assays:
[1] = system: Caco-2 cells
Protocol: (§1) In this in vitro model the transepithelial transport properties of a compound are determined in monolayers of a human intestinal cell-line (Caco-2) in terms of a permeability coefficient (apparent permeability).
(§2) Caco-2 cells were obtained from the American Type Culture Collection and were used in passage nrs 25 to 35. Cells were maintained at 37° C. in 75 cm^2 culture flasks (Nunc) in Dulbecco's Modified Eagle's Medium (DNEM) supplemented with 1% of non-essential amino acid solution (100×), 10% of heat-inactivated fetal bovine serum, penicillin (100 U/ml) and streptomycin (100 μg/ml) in an atmosphere of 95% of air and 5% of CO2. The pH of the medium was 7.4. For experiments cells were grown on Transwell-COL™ collagen treated cell culture filter inserts (Costar, Cambridge, Mass., USA) with a surface area of 0.33 cm^2 The seeding density was 6.3×10^5 cells/cm^2. Culture medium was added on each side of the filter. The growth of the cells and degree of confluency was checked every 2-3 days microscopically. Confluent monolayers were used on day 23-24 after seeding, at which time the transepithelial electrical resistance of the monolayers was at a stable value of approximately 260 Ω·cm^2. Permeability experiments were performed with compound concentrations of 0.1 mM or 1 mM in the apical compartment in Hanks' Balanced Salt Solution with or without 0.5% (w/v) of bovine serum albumin. At 1, 2 and 3 hours after addition of compound to the cells the filters were placed into fresh acceptor compartments. In this way three one-hour samples were obtained. Compound concentration was determined in samples from acceptor compartments and donor compartment by HPLC or by measuring anti-thrombin activity. Permeability experiments of each compound were performed with 4 different filters. Results shown in the Table are means of the permeability between 2 and 3 hours after the start of the experiment of at least 2 filters.

[2] = molecular target: Bovine Factor Xa (Bos taurus, UniProt P00743); experiment: Anti-factor Xa assay (hydrolysis of chromogenic substrate S-2222); type: biochemical; conditions: substrate S-2222, TNP buffer, 37° C.
Sequence of Bovine Factor Xa (P00743 41-180 limits assumed): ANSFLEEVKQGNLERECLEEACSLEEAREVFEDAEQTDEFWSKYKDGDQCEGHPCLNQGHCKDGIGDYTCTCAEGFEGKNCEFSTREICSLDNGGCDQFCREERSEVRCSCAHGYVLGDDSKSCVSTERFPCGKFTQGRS
Sequence of Bovine Factor Xa (P00743 234-492 limits assumed): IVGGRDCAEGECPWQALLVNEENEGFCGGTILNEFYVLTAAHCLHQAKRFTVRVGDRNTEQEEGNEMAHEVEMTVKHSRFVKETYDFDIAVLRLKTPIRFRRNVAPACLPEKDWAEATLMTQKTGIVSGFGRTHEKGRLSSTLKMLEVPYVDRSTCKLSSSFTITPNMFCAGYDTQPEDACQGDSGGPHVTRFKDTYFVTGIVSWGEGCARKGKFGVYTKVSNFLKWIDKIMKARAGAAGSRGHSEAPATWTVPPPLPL
Source text: Activated Factor X (Xa) is a factor in the coagulation cascade. […] This assay for anti-Xa activity in a buffer system was used to assess the IC50-value of the test compound.
In general the followed procedure and test conditions were analogous to those of the anti-thrombin assay as described above. Differences are indicated below.

[3] = Caco-2 permeability; conditions: human, Caco-2
Protocol: as §1, §2

[4] = system: Caco-2 cells; experiment: Caco-2 permeability; conditions: 0.1 mM or 1 mM apical; mean of permeability between 2 and 3 hours, at least 2 filters
Protocol: as §1, §2

[5] = in vitro; conditions: human, Caco-2
Protocol: as §1, §2

[6] = molecular target: Human thrombin (Homo sapiens, UniProt P00734); experiment: Anti-thrombin assay (hydrolysis of chromogenic substrate S-2238); type: biochemical; conditions: substrate S-2238, TNP buffer pH 7.4, 37° C., read-out: Antithrombin activity: IC50
Source text: Thrombin (Factor IIa) is a factor in the coagulation cascade.
This assay for anti-thrombin activity in a buffer system was used to assess the IC50-value of a test compound.
Preparation of test and reference compound solutions
Each concentration is stepwise diluted with the vehicle to give concentrations of 10^−3, 10^−4 and 10^−5 mol·l^−1. The dilutions, including the stock solution, are used in the assay (final concentrations in the reaction mixture: 3·10^−3; 10^−3; 3·10^−4; 10^−4; 3·10^−5; 10^−5; 3·10^−6 and 10^−6 mol·l^−1, respectively).
At room temperature 0.075 ml and 0.025 ml test compound or reference compound solutions or vehicle are alternately pipetted into the wells of a microtiter plate and these solutions are diluted with 0.115 ml and 0.0165 ml TNP buffer, respectively. […] The plate is incubated (with shaking for 30 s) at 37° C.
All data are collected in an IBM personal computer using LOTUS-MEASURE. For each compound concentration (expressed in mol·l^−1 reaction mixture) and for the blank the absorbance is plotted versus the reaction time in min.
Evaluation of responses: For each final concentration the maximum absorbance was calculated from the assay plot.

Molecule: 1-[3-[3-(aminoiminomethyl)phenyl]-2-[(2-naphthalenyl-sulfonyl)amino]-1-oxopropyl]-4-(methylsulfonyl)piperazine [Pefa 1286]
Caco-2 Papp (apparent permeability) [1]: 1.1 nm/s

Molecule: COC(=O)C(Cc1ccc2c(N)nccc2c1)NC(=O)CNS(=O)(=O)c1ccc2ccccc2c1 (stereo not shown) [Example 1, 3-(1-amino-6-isoquinolinyl)-2-[[2-[(2-naphthalenylsulfonyl)amino]acetyl]amino]propionic acid methyl ester hydrochloride]
IC50 [2]: 48 µM

Molecule: COC(=O)C(Cc1cc2c(N)nccc2s1)NC(=O)CNS(=O)(=O)c1ccc2ccccc2c1 (stereo not shown) [Example 3, 3-(4-aminothieno[3,2c]pyridin-2-yl)-2-[[2-[(2-naphthalenylsulfonyl)amino]acetyl]amino]-propionic acid methyl ester hydrochloride]
IC50 [2]: 29 µM

Molecule: Cl.Nc1nccc2sc(CC(NC(=O)CNS(=O)(=O)c3ccc4ccccc4c3)C(=O)N3CCCCC3)cc12 (stereo not shown) [Example 4, N-[1-[(4-Aminothieno[3,2c]pyridin-2-yl)methyl]-2-oxo-2-(1-piperidinyl)ethyl]-2-[(2-naphthalenylsulfonyl)amino]acetamide hydrochloride]
Caco-2 Papp (apparent permeability) [4]: 25 nm/s

Molecule: Cc1c(C)c(S(=O)(=O)NCC(=O)NC(Cc2ccc3c(N)nccc3c2)C(=O)N2CCCCC2)c(C)c2c1OC(C)(C)CC2.Cl (stereo not shown) [Example 5, N-[1-[(1-Amino-6-isoquinolinyl)methyl]-2-oxo-2-(1-piperidinyl)ethyl]-2-[[(3,4-dihydro-2,2,5,7,8-pentamethyl-2H-1-benzopyran-6-yl)sulfonyl]amino]acetamide hydrochloride]
Papp A→B [5]: 3.7 ×10⁻⁶ cm/s
IC50 [6]: 28 µM

Molecule: COCCN(C)C(=O)C(Cc1cc2c(N)nccc2s1)NS(=O)(=O)c1ccc2ccc(OC)cc2c1 (stereo not shown) [Example 26, 3-(4-aminothieno[3,2c]pyridin-2-yl)-N-(2-methoxyethyl)-2-[[(7-methoxy-2-naphthalenyl)-sulfonyl]amino]-N-methyl-propanamide hydrochloride]
IC50 [2]: 14 µM

Molecule: CC1CCN(C(=O)C(Cc2cc3c(N)nccc3s2)NS(=O)(=O)c2ccc3oc4ccccc4c3c2)CC1 (stereo not shown) [Example 32, 1-[3-(4-aminothieno[3,2c]pyridin-2-yl)-2-[[(2-dibenzofuranyl)sulfonyl]amino]-1-oxopropyl]-4-methylpiperidine hydrochloride]
IC50 [6]: 1.44 µM

Next, values leading:

Papp A→B [3]: 1.9 ×10⁻⁶ cm/s
Molecule: Cl.Nc1nccc2cc(CC(NC(=O)CNS(=O)(=O)c3ccc4ccccc4c3)C(=O)N3CCCCC3)ccc12 (stereo not shown) [Example 2, N-[1-[(1-amino-6-isoquinolinyl)methyl]-2-oxo-2-(1-piperidinyl)ethyl]-2-[(2-naphthalenyl-sulfonyl)amino]acetamide hydrochloride]

IC50 [6]: 6.8 µM
Molecule: Nc1nccc2cc(CC(NC(=O)[C@H](CO)NS(=O)(=O)c3ccc4ccccc4c3)C(=O)N3CCCCC3)ccc12 (stereo partly drawn) [Example 7, (2S)-N-[1-[(1-amino-6-isoquinolinyl)methyl]-2-oxo-2-(1-piperidinyl)ethyl]-3-hydroxy-2-[(2-naphthalenylsulfonyl)amino]propanamide hydrochloride]

IC50 [6]: 1.1 µM
Molecule: Cc1c(C)c(S(=O)(=O)NNC(=O)NC(Cc2ccc3c(N)nccc3c2)C(=O)N2CCCCC2)c(C)c2c1OC(C)(C)CC2 (stereo not shown) [Example 10, 3,4-dihydro-2,2,5,7,8-pentamethyl-2H-1-benzopyran-6-ylsulfonic acid 2-[[[1-[(1-amino-6-isoquinolinyl)methyl]-2-oxo-2-(1-pineridinyl)ethyl]amino]carbonyl]hydrazide hydrochloride]

IC50 [6]: 0.53 µM
Molecule: COc1ccc2ccc(S(=O)(=O)NC(Cc3cc4c(N)nccc4s3)C(=O)N3CCC(C)CC3)cc2c1 (stereo not shown) [Example 18, 1-[1-(4-aminothieno[3,2c]pyridin-2-yl)-2-[[(7-methoxy-2-naphthalenyl)sulfonyl]amino]-1-oxopropyl]-4-methylpiperidine hydrochloride]

IC50 [6]: 35 µM
Molecule: CC1CCN(C(=O)C(Cc2cc3c(N)nccc3s2)NS(=O)(=O)CC23CCC(CC2=O)C3(C)C)CC1 [Example 30, 1-[3-(4-aminothieno[3,2c]pyridin-2-yl)-2-[[[1-(1R,4S)-(7,7-dimethyl-2-oxobicyclo[2,2,1]hept-1-yl)methyl]sulfonyl]amino]-1-oxopropyl]-4-methylpiperidine hydrochloride]
